Results published in US20220306617A1, “SUBSTITUTED 1,3-PHENYL HETEROARYL DERIVATIVES AND THEIR USE IN THE TREATMENT OF DISEASE” (NOVARTIS AG, priority 2019, published 2022).
Where a name gives a salt, the structure may show the parent alone.

Biological target: T1, abc isoform of human TMEM16A channel expressed in CHO cells (Homo sapiens, UniProt Q5XXA6, DEL476-501)
T1 construct: expressed in transfected cells; host or cells: CHO cells, doxycycline-inducible expression under Blasticidin/Zeocin selection
T1 sequence (Q5XXA6 with tags, fused parts or gaps isoform Q5XXA6-5 DEL539-564): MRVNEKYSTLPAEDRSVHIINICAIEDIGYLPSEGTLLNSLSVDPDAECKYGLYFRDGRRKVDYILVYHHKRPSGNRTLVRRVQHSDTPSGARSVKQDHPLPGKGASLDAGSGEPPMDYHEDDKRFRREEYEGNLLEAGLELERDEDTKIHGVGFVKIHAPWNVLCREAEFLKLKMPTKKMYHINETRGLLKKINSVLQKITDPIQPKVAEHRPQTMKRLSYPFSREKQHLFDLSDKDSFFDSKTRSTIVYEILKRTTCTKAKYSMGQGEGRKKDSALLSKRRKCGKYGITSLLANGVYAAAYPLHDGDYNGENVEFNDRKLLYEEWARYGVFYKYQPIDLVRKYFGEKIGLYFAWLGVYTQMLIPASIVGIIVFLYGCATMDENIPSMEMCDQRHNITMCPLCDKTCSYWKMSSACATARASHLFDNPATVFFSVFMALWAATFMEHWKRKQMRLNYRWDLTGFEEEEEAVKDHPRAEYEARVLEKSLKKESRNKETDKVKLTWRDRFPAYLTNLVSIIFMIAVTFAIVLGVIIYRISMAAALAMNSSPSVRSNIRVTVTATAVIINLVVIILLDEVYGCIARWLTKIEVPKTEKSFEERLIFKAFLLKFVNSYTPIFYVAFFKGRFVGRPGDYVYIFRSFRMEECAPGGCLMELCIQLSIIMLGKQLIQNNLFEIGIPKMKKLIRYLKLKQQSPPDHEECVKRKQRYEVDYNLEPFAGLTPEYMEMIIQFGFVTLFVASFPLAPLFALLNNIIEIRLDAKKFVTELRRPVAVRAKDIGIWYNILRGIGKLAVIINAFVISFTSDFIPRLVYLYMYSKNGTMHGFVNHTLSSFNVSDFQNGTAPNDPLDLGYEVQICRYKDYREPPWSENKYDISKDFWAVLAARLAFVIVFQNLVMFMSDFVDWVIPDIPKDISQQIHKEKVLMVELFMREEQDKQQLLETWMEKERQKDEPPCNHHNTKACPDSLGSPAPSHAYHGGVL
Experiment: Automated patch clamping (QPatch) assay to measure TMEM16A activity in whole-cell
Format: cell-based
Details: for EC50: CHO cells expressing human TMEM16A (abc), whole-cell automated patch clamp, Hill fit, read-out: TMEM16A QPATCH assay EC50 V3 EC50; for Emax: CHO, maximum current at highest dose relative to reference potentiator at maximal concentration (upper limit) and vehicle (lower limit), read-out: TMEM16A QPATCH assay EC50 V3 Assay Window (% TMEM16A max activation)
Protocol: Automated Patch Clamping Assay to Measure TMEM16A Activity in Whole-Cell
Chinese hamster ovary cells (CHO) cells expressing abc isoform of human TMEM16A channel (Ref) were grown in vented cell-culture flasks (Corning) containing cell culture medium (1×F-12 Ham, 10% FBS, 1% Penicillin-streptomycin, 5 μg/mL Blasticidin S HCl, 400 μg/mL Zeocin), maintained at 37° C. in an incubator with 5% C02, 95% 02 and 100% humidity. The cells were passaged every 2-3 days at 80-90% confluence by aspirating the cell culture medium, washing twice with 10 mL D-PBS then incubating with 4 mL Trypsin-EDTA for no longer than 5 minutes. Trypsin was neutralized with the addition of 32 mL growth medium to the cell suspension, the cells were counted using a viable-cell counter (Vi-CELL; Beckmann-Coulter) and new flasks were seeded at a cell density of 0.01, 0.02, or 0.05×10^6 cells per cm2 for 3, 2, or 1 day(s) growth, respectively. Cell suspension was diluted in the new 175 cm2 flask with 50 mL of growth medium. Doxycycline was used to induce the expression of TMEM16A channel protein and was added directly to the culture flask 18-24 hours in advance of assay at a final concentration of 1 μg/mL. Induced cells were washed with D-PBS and detached from their culture flasks by adding 10 mL of Detachin and incubating for 10 minutes. Once detached, 5 mL of QPatch assay medium (1×CHO-S-SFM II (Sigma), 25 mM HEPES) was added and the resultant cell suspension counted using the Vi-CELL viable cell counter. The optimal cell density for this QPatch assay is 2-5×1 06 cells/mL; re-adjusted as necessary with QPatch assay medium.
The ion channel activity of TMEM16A (abc) expressed in CHO cells was assed using an automated patch clamp system (Qpatch, Sophion). These systems use planar patch-clamp technology to enable high-resistance, continuous whole-cell recordings from multiple cells in parallel, whilst maintaining each individual cell as an isolated experiment. First, each well was primed with intracellular and extracellular solutions described below. Cells were spun down, washed and then resuspended using extracellular solution. Intracellular solution: 130 mM N-methyl-D-glucamine, 10 mM EGTA, 20 mM CaCl2, 1 mM MgCl2, 10 mM HEPES 10, 10 mM BAPTA, 99 mM Sucrose, 2 mM Mg-ATP, pH 7.3, 320 mOsm Extracellular solution: 130 mM N-methyl-D-glucamine, 10 mM EGTA, 20 mM CaCl2, 1 mM MgCl2, 10 mM HEPES 10, 10 mM BAPTA, 99 mM Sucrose, 2 mM Mg-ATP, pH 7.3, 320 mOsm. Resuspended cells were then added to each well and suction was applied from the intracellular side in order to position a cell on the chip aperture, form a high resistance (GO) seal and achieve a whole-cell recording configuration. Following successful whole cell access, cell membranes were maintained at a voltage of −70 mV until the voltage protocol is applied. From this voltage, membranes were depolarized to +70 mV for 1500 ms, and then hyperpolarized to […] before being depolarized again from −90 to +70 mV in a continuous ramp waveform. At the end of the ramp, the membrane voltage is stepped back to −70 mV until the next waveform was applied. Compounds were dissolved at 10 mM in 100% DMSO and then diluted into extracellular solution (0.3% DMSO final) to the desired final concentration. The assay lower and upper limit were defined as follow, average amplitude (nA) of the last 3 sweeps in the vehicle addition of each cell was considered the basal current (lower limit); the average maximum current response in 3 cells for a reference potentiator at maximal concentration (upper limit). Current values for each compound concentration were then plotted against […]. EC50 curves are fitted to concentration-response data using curve-fitting functions (Hill fit) within the QPatch software. Curve fitting is constrained between the lowest concentration (vehicle-only addition) and the highest current value measured within the concentration range. […]

| SMILES | EC50 [nM] | Emax [%] |
| --- | --- | --- |
| CCC(CC)NC(=O)c1cnc(-c2cccc(-c3cc(C(=O)NC4CCCC4)n[nH]3)c2)o1 [Example 3.48, 2-(3-(3-(Cyclopentylcarbamoyl)-1 H-Pyrazol-5-Yl)Phenyl)-N-(Pentan-3-yl)Oxazole-5-Carboxamide] | 120 | 74 |
| CCC(CC)NC(=O)c1cc(-c2cccc(-c3ncc(C(=O)N[C@@H](C)CC)o3)c2)[nH]n1 [Example 1.45, (S)-N-(Sec-Butyl)-2-(3-(3-(Pentan-3-Ylcarbamoyl)-1H-Pyrazol-5-Yl)Phenyl)Oxazole-5-Carboxamide] | 710 | 75 |
| CCOC(=O)[C@@H](NC(=O)c1cnc(-c2cccc(-c3cc(C(=O)NC(C4CC4)C4CC4)[nH]n3)c2)o1)C(C)C [Example 1.12, (S)-Ethyl 2-(2-(3-(5-((Dicyclopropylmethyl)Carbamoyl)-1H-Pyrazol-3-yl)Phenyl)Oxazole-5-Carboxamido)-3-Methylbutanoate] | 20 | 87 |
| CCC(CC)NC(=O)c1cnc(-c2cccc(-c3cc(C(=O)N[C@@H](C)C(=O)OCc4ccccc4)n[nH]3)c2)o1 [Example 3.64, (S)-Benzyl 2-(5-(3-(5-(Pentan-3-Ylcarbamoyl)Oxazol-2-Yl)Phenyl)-1H-Pyrazole-3-Carboxamido)Propanoate Trifluoroacetate] | 150 | 72 |
| CCC(CC)NC(=O)c1cnc(-c2cccc(-c3cc(C(=O)NC(COC)C(C)C)n[nH]3)c2)o1 (stereo not shown) [Example 3.36, 2-(3-(3-((1-Methoxy-3-Methylbutan-2-Yl)Carbamoyl)-1H-Pyrazol-5-Yl)Phenyl)-N-(Pentan-3-Yl)Oxazole-5-Carboxamide] | 190 | 97 |
| CCC(CC)NC(=O)c1cnc(-c2cccc(-c3cc(C(=O)NC(C)(C)c4ccccc4)n[nH]3)c2)o1 [Example 3.54, N-(Pentan-3-Yl)-2-(3-(3-((2-Phenylpropan-2-Yl)Carbamoyl)-1H-Pyrazol-5-Yl)Phenyl)Oxazole-5-Carboxamide] | 60 | 109 |
| CCOC(=O)[C@H](NC(=O)c1cc(-c2cccc(-c3ncc(C(=O)NC(CC)CC)o3)c2)[nH]n1)c1ccccc1 [Example 3.59, (R)-Ethyl 2-(5-(3-(5-(Pentan-3-Ylcarbamoyl)Oxazol-2-Yl)Phenyl)-1H-Pyrazole-3-Carboxamido)-2-Phenylacetate Trifluoroacetate] | 60 | 106 |
| CCC(CC)NC(=O)c1cnc(-c2cccc(-c3cc(C(=O)NCC4(C)CC4)n[nH]3)c2)o1 [Example 3.13, 2-(3-(3-(((1-Methylcyclopropyl)Methyl)Carbamoyl)-1H-Pyrazol-5-Yl)Phenyl)-N-(Pentan-3-Yl)Oxazole-5-Carboxamide] | 70 | 70 |
| CCC(CC)NC(=O)c1cnc(-c2cccc(-c3cc(C(=O)N[C@H](C)C4CC4)[nH]n3)c2)o1 [Example 3.56, (R)-2-(3-(5-((1-Cyclopropylethyl)Carbamoyl)-1H-Pyrazol-3-Yl)Phenyl)-N-(Pentan-3-Yl)Oxazole-5-Carboxamide] | 90 | 78 |
| CCC(CC)NC(=O)c1cnc(-c2cccc(-c3cc(C(=O)N4CCCC4C(C)C)n[nH]3)c2)o1 (stereo not shown) [Example 3.31, 2-(3-(3-(2-Isopropylpyrrolidine-1-Carbonyl)-1H-Pyrazol-5-Yl)Phenyl)-N-(Pentan-3-Yl)Oxazole-5-Carboxamide] | 180 | 87 |
| CCC(CC)NC(=O)c1cnc(-c2cccc(-c3cc(C(=O)N4CCCCC4)n[nH]3)c2)o1 [Example 3.33, N-(Pentan-3-Yl)-2-(3-(3-(Piperidine-1-Carbonyl)-1H-Pyrazol-5-Yl)Phenyl)Oxazole-5-Carboxamide] | 840 | 61 |

Next, values leading:

| EC50 [nM] | Emax [%] | SMILES |
| --- | --- | --- |
| 790 | 186 | CCC(CC)NC(=O)c1cnc(-c2cccc(-c3cn(CC(O)C(F)(F)F)c(C(=O)N[C@@H](C)C4CC4)n3)c2)o1 (stereo partly drawn) [Example 17.0, 2-(3-(2-(((S)-1-Cyclopropylethyl)Carbamoyl)-1-(3,3,3-Trifluoro-2-Hydroxypropyl)-1H-Imidazol-4-Yl)Phenyl)-N-(Pentan-3-Yl)Oxazole-5-Carboxamide] |
| 450 | 119 | C[C@H](NC(=O)c1cc(-c2cccc(-c3ncc(C(=O)N[C@H](C)C4CC4)o3)c2)nn1CC(O)C(F)(F)F)C1CC1 (stereo partly drawn) [Example 8.2, N-((R)-1-Cyclopropylethyl)-2-(3-(5-(((S)-1-Cyclopropylethyl)Carbamoyl)-1-(3,3,3-Trifluoro-2-Hydroxypropyl)-1H-Pyrazol-3-Yl)Phenyl)Oxazole-5-Carboxamide] |
| 290 | 140 | C[C@H](NC(=O)c1cnc(-c2cccc(-c3nc(C(=O)N[C@@H](C)C4CC4)n(CCCO)n3)c2)o1)C1CC1 [Example 16.2, N-((S)-1-Cyclopropylethyl)-2-(3-(5-(((S)-1-Cyclopropylethyl)Carbamoyl)-1-(3-Hydroxypropyl)-1H-1,2,4-Triazol-3-Yl)Phenyl)Oxazole-5-Carboxamide] |
| 50 | 95 | CCC(CC)NC(=O)c1nnc(-c2cccc(-c3ncc(C(=O)NC(CC)CC)o3)c2)[nH]1 [Example 13.3, N-(Pentan-3-Yl)-2-(3-(5-(Pentan-3-Ylcarbamoyl)-1 H-1,2,4-Triazol-3-Yl)Phenyl)Oxazole-5-Carboxamide] |
| 150 | 80 | CC(C)[C@H](C)NC(=O)c1cnc(-c2cccc(-c3nnc(C(=O)N[C@@H](C)C4CC4)[nH]3)c2)o1 [Example 12.11] |
| 460 | 102 | C[C@H](NC(=O)c1cnc(-c2cccc(-c3nc(C(=O)N[C@@H](C)C4CC4)n(CCO)n3)c2)o1)C1CC1 [Example 16.1, N-((S)-1-Cyclopropylethyl)-2-(3-(5-(((S)-1-Cyclopropylethyl)Carbamoyl)-1-(2-Hydroxyethyl)-1H-1,2,4-Triazol-3-Yl)Phenyl)Oxazole-5-Carboxamide] |
